Molecular target: T1, human PAH with the R408W mutation (Homo sapiens, UniProt P00439, R408W)
T1 construct: expressed in transfected cells
T1 sequence (P00439 1-452 R408W): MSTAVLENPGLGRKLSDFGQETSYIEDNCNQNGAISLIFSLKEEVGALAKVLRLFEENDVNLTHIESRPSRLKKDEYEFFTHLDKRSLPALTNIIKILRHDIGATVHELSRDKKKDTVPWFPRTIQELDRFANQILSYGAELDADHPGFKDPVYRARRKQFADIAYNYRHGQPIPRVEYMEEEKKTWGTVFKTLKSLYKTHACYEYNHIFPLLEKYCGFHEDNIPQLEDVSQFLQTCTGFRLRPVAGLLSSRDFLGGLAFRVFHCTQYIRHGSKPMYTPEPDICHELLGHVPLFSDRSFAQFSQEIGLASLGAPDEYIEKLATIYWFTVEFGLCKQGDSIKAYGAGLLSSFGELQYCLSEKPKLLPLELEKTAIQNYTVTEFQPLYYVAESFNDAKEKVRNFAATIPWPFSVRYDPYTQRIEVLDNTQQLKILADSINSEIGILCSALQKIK
Assay: Cell Based Phenylalanine Flux Assay;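 note: Ten-point dose curve from 2-fold serial dilutions, run in duplicate at 0.5% DMSO final, tracer step used 20 µM sepiapterin and 800 µM labeled phenylalanine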
Conditions: A375 cells expressing human R408W PAH; 24 hrs with compound, then sepiapterin and 13C9,15N-Phenylalanine for 4 hours; 13C-Tyrosine by LC-MS; average where tested multiple times; read-out: AC50

Row | AC50 [µM] | Molecule
1 | < 0.5 | Cc1cccn2nc([C@@H]3c4nc[nH]c4CCN3c3nnc(-c4cccc(F)n4)o3)cc12 [Example 2361, (S)-2-(6-fluoropyridin-2-yl)-5-(4-(4-methylpyrazolo[1,5-a]pyridin-2-yl)-1,4,6,7-tetrahydro-5H-imidazo[4,5-c]pyridin-5-yl)-1,3,4-oxadiazole]
2 | 1 to 5 | O=C(c1nnc(-c2ccc(F)cn2)o1)N1CCc2[nH]cnc2[C@H]1c1cc2ccccn2n1 [Example 2365, (S)-(5-(5-fluoropyridin-2-yl)-1,3,4-oxadiazol-2-yl)(4-(pyrazolo[1,5-a]pyridin-2-yl)-6,7-dihydro-1H-imidazo[4,5-c]pyridin-5(4H)-yl)methanone]
3 | 1 to 5 | O=C(c1cn[nH]c1C(F)F)N1CCc2[nH]cnc2[C@H]1c1cc2ccccn2n1 [Example 2366, (S)-(5-(difluoromethyl)-1H-pyrazol-4-yl)(4-(pyrazolo[1,5-a]pyridin-2-yl)-6,7-dihydro-1H-imidazo[4,5-c]pyridin-5(4H)-yl)methanone]
4 | > 5 | Cc1ccc2cc([C@H]3c4nc[nH]c4CCN3C(=O)c3nnc(-c4cnn(C)c4)o3)nn2c1 [Example 2381, (R)-(5-(1-methyl-1H-pyrazol-4-yl)-1,3,4-oxadiazol-2-yl)(4-(6-methylpyrazolo[1,5-a]pyridin-2-yl)-6,7-dihydro-1H-imidazo[4,5-c]pyridin-5(4H)-yl)methanone]
5 | 1 to 5 | O=C(c1nnc(C2CC2)o1)N1CCc2[nH]cnc2[C@H]1c1cc2ccc(F)cn2n1 [Example 2404, (S)-(5-cyclopropyl-1,3,4-oxadiazol-2-yl)(4-(6-fluoropyrazolo[1,5-a]pyridin-2-yl)-6,7-dihydro-1H-imidazo[4,5-c]pyridin-5(4H)-yl)methanone]
6 | 1 to 5 | Cn1cc(-c2nnc(C(=O)N3CCc4[nH]cnc4[C@H]3c3cc4ccc(C(F)(F)F)cn4n3)o2)cn1 [Example 2416, (S)-(5-(1-methyl-1H-pyrazol-4-yl)-1,3,4-oxadiazol-2-yl)(4-(6-(trifluoromethyl)pyrazolo[1,5-a]pyridin-2-yl)-6,7-dihydro-1H-imidazo [4,5-c]pyridin-5(4H)-yl)methanone]
7 | 1 to 5 | O=C(c1nnc(-c2cnn(C(F)(F)F)c2)o1)N1CCc2[nH]cnc2[C@H]1c1cc2cccc(C(F)(F)F)n2n1 [Example 2428, (S)-(5-(1-(trifluoromethyl)-1H-pyrazol-4-yl)-1,3,4-oxadiazol-2-yl)(4-(7-(trifluoromethyl)pyrazolo[1,5-a]pyridin-2-yl)-6,7-dihydro-1H-imidazo[4,5-c]pyridin-5(4H)-yl)methanone]
8 | > 5 | CN(C)c1ccc2c(C(=O)N3CCc4[nH]cnc4[C@@H]3c3cc4cccc(Cl)n4n3)cnn2c1 [Example 2475, (R)-(4-(7-chloropyrazolo [1,5-a]pyridin-2-yl)-6,7-dihydro-1H-imidazo[4,5-c]pyridin-5(4H)-yl)(6-(dimethylamino)pyrazolo[1,5-a]pyridin-3-yl)methanone]
9 | 1 to 5 | Cc1nnc(C(=O)N2CCc3[nH]cnc3[C@H]2c2cc3c(C4CC4)cccn3n2)o1 [Example 2494, (S)-(4-(4-cyclopropylpyrazolo [1,5-a]pyridin-2-yl)-1,4,6,7-tetrahydro-5H-imidazo [4,5-c]pyridin-5-yl)(5-methyl-1,3,4-oxadiazol-2-yl)methanone]
10 | 1 to 5 | CC(C)c1cccn2nc([C@@H]3c4nc[nH]c4CCN3c3nnc(-c4cccnn4)o3)cc12 [Example 2512, (S)-2-(4-(4-isopropylpyrazolo [1,5-a]pyridin-2-yl)-1,4,6,7-tetrahydro-5H-imidazo [4,5-c]pyridin-5-yl)-5-(pyridazin-3-yl)-1,3,4-oxadiazole]
11 | 0.5 to 1 | (S)-(6-(methoxymethyl) pyrazolo[1,5-a]pyridin-3-yl)(4- (4-methylpyrazolo[1,5-a] pyridin-2-yl)-6,7-dihydro-1H- imidazo[4,5-c]pyridin- 5(4H)-yl)methanone [Example 1624]

— patent US12673961B2 (Agios Pharmaceuticals, Inc., priority 2022, dated 2026)
